Test results reported in ChEMBL document CHEMBL6153135, “Rational Design of a Potent, Selective, and Metabolically Stable CDK9 Inhibitor to Counteract Osimertinib Resistance through Mcl-1 Suppression and Enhanced BRD4 Co-Targeting” (J Med Chem, 2025).
Activity calls are given as the source filed them. The rule behind the calls is not given here.

Legend:
[1] = Metabolic stability in rat liver microsomes assessed as clearance measured for 5 to 60 mins by LC-MS/MS analysis; format: ADME, Microsome; conditions: time 5-60 min, read-out: CLH
[2] = Tmax in Sprague-Dawley rat at 20 mg/kg, po; format: ADME, organism-based; conditions: in vivo
[3] = Apparent volume of distribution in Sprague-Dawley rat at 20 mg/kg, po; format: ADME, organism-based; conditions: in vivo
[4] = AUC (0 to t) in BALB/c mouse at 15 mg/kg, po; format: ADME, organism-based; conditions: in vivo
[5] = Apparent volume of distribution in BALB/c mouse at 15 mg/kg, po; format: ADME, organism-based; conditions: in vivo
[6] = Clearance in BALB/c mouse at 15 mg/kg, po; format: ADME, organism-based; conditions: in vivo
[7] = target: CDK9/cyclin T1 (Homo sapiens) (UniProt O60563+P50750); assay: Inhibition of CDK9/cyclin T1 (unknown origin) at 100 nM preincubated for 10 mins followed by substrate/ATP measured after 60 mins by ADP-Glo assay relative to control; format: protein-complex assay; conditions: time 70.0 min
[8] = target: Cyclin-dependent kinase 2/cyclin E1 (Homo sapiens) (UniProt P24864+P24941); assay: Inhibition of CDK2/cyclin E1 (unknown origin) at 100 nM preincubated for 10 mins followed by substrate/ATP measured after 60 mins by ADP-Glo assay relative to control; format: protein-complex assay; conditions: time 70.0 min
[9] = target: Glycogen synthase kinase-3 beta (Homo sapiens) (UniProt P49841); assay: Inhibition of GSK3beta (unknown origin) at 100 nM preincubated for 10 mins followed by substrate/ATP measured after 60 mins by ADP-Glo assay relative to control; conditions: time 70.0 min
[10] = target: Cyclin-dependent kinase 5/CDK5 activator 1 (Homo sapiens) (UniProt Q00535+Q15078); assay: Inhibition of CDK5/p35NCK (unknown origin) at 100 nM preincubated for 10 mins followed by substrate/ATP measured after 60 mins by ADP-Glo assay relative to control; format: protein-complex assay; conditions: time 70.0 min
[11] = target: CDK6/cyclin D1 (Homo sapiens) (UniProt P24385+Q00534); assay: Inhibition of CDK6/Cyclin D1(unknown origin) at 100 nM preincubated for 10 mins followed by substrate/ATP measured after 60 mins by ADP-Glo assay relative to control; format: protein-complex assay; conditions: time 70.0 min
A549 = assay: Anti-proliferative activity against human A549 cells assessed as cell inhibition measured after 72 hrs by MTT assay; format: functional, cell-based; conditions: A549, 72 h
NCI-H1299 = assay: Anti-proliferative activity against human NCI-H1299 cells assessed as cell inhibition measured after 72 hrs by MTT assay; format: functional, cell-based; conditions: NCI-H1299, 72 h
[12] = system: Osimertinib-resistant NCI-H1975 cell; assay: Inhibition of colony formation in human Osimertinib-resistant NCI-H1975 cells at 25 nM measured after 14 days by crystal violet staining based analysis relative to control; format: functional; conditions: 336 h, time 14 day
[13] = system: Osimertinib-resistant NCI-H1975 cell; assay: Induction of apoptosis in human Osimertinib-resistant NCI-H1975 cells assessed as viable cells at 0.5 uM incubated for 16 hrs by Annexin V-FITC/PI staining based flow cytometry (reference value: 89.4 %); format: functional; conditions: read-out: Activity
[14] = system: Osimertinib-resistant NCI-H1975 cell; assay: Induction of apoptosis in human Osimertinib-resistant NCI-H1975 cells assessed as early apoptotic cells at 0.5 uM incubated for 16 hrs by Annexin V-FITC/PI staining based flow cytometry (reference value: 8.02 %); format: functional
[15] = system: Osimertinib-resistant NCI-H1975 cell; assay: Induction of apoptosis in human Osimertinib-resistant NCI-H1975 cells assessed as necrotic cells at 0.5 uM incubated for 16 hrs by Annexin V-FITC/PI staining based flow cytometry (reference value: 1.17 %); format: functional
[16] = target: Cyclin-dependent kinase 9 (Homo sapiens) (UniProt P50750); assay: Inhibition of CDK9 in human Osimertinib-resistant NCI-H1975 cells assessed as decrease in p-RNAPII-ser2 level incubated for 12 hrs by Western blot analysis; format: cell-based; conditions: Osimertinib-resistant NCI-H1975 cell, dose 50-500 nM
[17] = target: Cyclin-dependent kinase 9 (Homo sapiens) (UniProt P50750); assay: Inhibition of CDK9 in human Osimertinib-resistant NCI-H1975 cells assessed as decrease in Mcl-1 level incubated for 12 hrs by Western blot analysis; format: cell-based; conditions: Osimertinib-resistant NCI-H1975 cell, dose 50-500 nM
NCI-H1975 [18] = assay: Anti-proliferative activity against human NCI-H1975 cells assessed as cell inhibition measured after 72 hrs in presence of 250 nM JQ1 by MTT assay; format: functional, cell-based; conditions: NCI-H1975, 72 h
HCC827 = assay: Anti-proliferative activity against human HCC827 cells assessed as cell inhibition measured after 72 hrs in presence of 500 nM JQ1 by MTT assay; format: functional, cell-based; conditions: HCC827, 72 h
[19] = Anti-proliferative activity against human Osimertinib-resistant HCC827 cells assessed as cell inhibition measured after 72 hrs in presence of 250 nM JQ1 by MTT assay; format: functional, cell-based
[20] = Anti-proliferative activity against human Osimertinib-resistant HCC827 cells assessed as cell inhibition measured after 72 hrs in presence of 100 nM JQ1 by MTT assay; format: functional, cell-based
[21] = system: Osimertinib-resistant NCI-H1975 cell; assay: Anti-proliferative activity against human Osimertinib-resistant NCI-H1975 cells assessed as cell inhibition measured after 72 hrs in presence of 100 nM JQ1 by MTT assay; format: functional, cell-based
[22] = Selectivity ratio of IC50 for anti-proliferative activity against human Osimertinib-resistant HCC827 cells to IC50 for anti-proliferative activity against human Osimertinib-resistant HCC827 cells in presence of JQ1; format: functional
[23] = system: Osimertinib-resistant HCC827 cell; assay: Inhibition of stem cell multi-functionality signaling in human Osimertinib-resistant HCC827 cells by KEGG analysis; format: functional, cell-based
[24] = system: Lung adenocarcinoma organoid; assay: Anti-tumor activity against Osimertinib-resistant patient (#0085)-derived human Lung adenocarcinoma organoid assessed as inhibition of cell viability measured after 96 hrs; format: functional, tissue-based; conditions: Neoplasm
[25] = system: Lung adenocarcinoma organoid; assay: Anti-tumor activity against multidrug-resistant patient (#2663)-derived human Lung adenocarcinoma organoid assessed as inhibition of cell viability measured after 96 hrs; format: functional, tissue-based; conditions: Neoplasm
[26] = system: Lung adenocarcinoma organoid; assay: Anti-tumor activity against patient (#2514)-derived human Lung adenocarcinoma organoid assessed as inhibition of cell viability measured after 96 hrs; format: functional, tissue-based; conditions: Neoplasm
NCI-H1975 [27] = assay: Antitumor activity against human NCI-H1975 cells xenografted in BALB-c nude mouse at 30 mg/kg, po administered on every two days relative to control; format: functional; conditions: NCI-H1975, 48 h, read-out: TGI
[28] = Toxicity in BALB-c nude mouse xenografted with human NCI-H1975 cells assessed as pathological damage in lung at 15 mg/kg, iv administered on every two days by H and E staining based analysis; format: organism-based; conditions: in vivo
[29] = Toxicity in BALB-c nude mouse xenografted with human NCI-H1975 cells assessed as pathological damage in kidney at 15 mg/kg, iv administered on every two days by H and E staining based analysis; format: organism-based; conditions: in vivo
Mus musculus = assay: In vivo downregulation of c-Myc level in tumor tissue of BALB-c nude mouse xenografted with human Osimertinib-resistant HCC827 cells at 5 mg/kg, iv in presence of JQ1 by Western blot analysis; format: functional, organism-based
[30] = C0 in BALB/c mouse at 2 mg/kg, iv; conditions: in vivo
[31] = Cmax in Sprague-Dawley rat at 20 mg/kg, po; conditions: in vivo

Sequence of Cyclin-dependent kinase 9 (Homo sapiens) (P50750 whole entry): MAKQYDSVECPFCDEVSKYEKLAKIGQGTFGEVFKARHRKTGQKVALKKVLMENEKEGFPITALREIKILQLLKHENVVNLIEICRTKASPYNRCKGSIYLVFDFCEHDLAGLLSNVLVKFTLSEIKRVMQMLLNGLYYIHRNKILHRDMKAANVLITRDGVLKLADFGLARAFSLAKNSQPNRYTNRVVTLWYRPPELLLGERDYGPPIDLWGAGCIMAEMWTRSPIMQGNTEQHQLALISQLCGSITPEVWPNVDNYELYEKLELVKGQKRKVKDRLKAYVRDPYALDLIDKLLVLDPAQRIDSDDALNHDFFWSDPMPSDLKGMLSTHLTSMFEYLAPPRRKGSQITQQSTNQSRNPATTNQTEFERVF
Sequence of Glycogen synthase kinase-3 beta (Homo sapiens) (P49841 whole entry, looked up): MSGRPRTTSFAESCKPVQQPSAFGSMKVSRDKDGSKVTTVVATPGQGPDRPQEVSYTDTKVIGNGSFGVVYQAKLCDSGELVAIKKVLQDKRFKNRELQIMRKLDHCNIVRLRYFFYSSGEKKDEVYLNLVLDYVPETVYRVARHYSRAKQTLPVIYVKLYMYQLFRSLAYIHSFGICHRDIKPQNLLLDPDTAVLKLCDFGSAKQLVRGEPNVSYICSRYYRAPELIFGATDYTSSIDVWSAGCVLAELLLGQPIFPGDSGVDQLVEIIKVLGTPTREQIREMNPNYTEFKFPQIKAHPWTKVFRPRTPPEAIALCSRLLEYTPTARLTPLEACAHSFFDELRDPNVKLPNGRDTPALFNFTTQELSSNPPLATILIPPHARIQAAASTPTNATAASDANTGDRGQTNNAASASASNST
Sequence of Cyclin-dependent kinase 5/CDK5 activator 1 (Homo sapiens) (Q00535 whole entry): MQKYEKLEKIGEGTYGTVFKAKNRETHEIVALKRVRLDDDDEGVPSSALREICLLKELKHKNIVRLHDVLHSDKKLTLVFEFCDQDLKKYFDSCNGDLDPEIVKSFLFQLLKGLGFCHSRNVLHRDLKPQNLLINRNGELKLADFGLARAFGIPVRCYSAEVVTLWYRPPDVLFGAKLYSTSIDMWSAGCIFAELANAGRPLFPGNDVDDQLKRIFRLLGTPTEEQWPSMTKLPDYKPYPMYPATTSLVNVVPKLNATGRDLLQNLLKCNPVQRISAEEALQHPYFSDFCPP
Sequence of Cyclin-dependent kinase 5/CDK5 activator 1 (Homo sapiens) (Q15078 99-307 partner limits assumed): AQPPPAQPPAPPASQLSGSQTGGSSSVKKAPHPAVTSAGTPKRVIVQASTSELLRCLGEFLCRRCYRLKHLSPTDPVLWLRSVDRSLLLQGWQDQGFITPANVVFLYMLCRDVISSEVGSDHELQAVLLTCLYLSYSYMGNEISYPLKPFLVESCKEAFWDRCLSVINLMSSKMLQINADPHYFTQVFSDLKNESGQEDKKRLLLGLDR

CC(=O)N1CCC(NC(=O)c2ccc3cc2OCCCCCCOc2cc(ccc2F)-c2nc(ncc2F)N3)CC1
microsomal CLint [1]: 38.4 µL/min/mg
Tmax [2]: 49.8 min
Vz [3]: 30 L/kg
AUC(0-t) [4]: 754 ng·h/mL
Vz [5]: 109.3 L/kg
CL/F [6]: 350 mL/min/kg
inhibition [7]: 97.3%
inhibition [8]: 50.2%
inhibition [9]: 94.1%
inhibition [10]: 7.24%
inhibition [11]: 33.1%
IC50 (A549): 140 nM
IC50 (NCI-H1299): 70 nM
inhibition at 0.025 µM [12]: 100%
viability at 0.5 µM [13]: 63.1%
Activity [14]: 25.4%
Activity [15]: 1.46%
inhibition [16]: Dose-dependent-effect
inhibition [17]: Dose-dependent-effect
IC50 (NCI-H1975 [18]): 29.7 nM
IC50 (HCC827): 9.7 nM
IC50 [19]: 12.3 nM
IC50 [20]: 31.6 nM
IC50 [21]: 26.8 nM
Ratio IC50 [22]: 10
inhibition [23]: Active
IC50 [24]: 44.7 nM
IC50 [25]: < 50 nM
IC50 [26]: < 50 nM
inhibition in vivo at 30 mg/kg (NCI-H1975 [27]): 52.5%
Activity [28]: Non-toxic
Activity [29]: Non-toxic
Activity (Mus musculus): Active
C0 [30]: 1206.2 ng/mL
Cmax [31]: 775.6 ng/mL
